pKi: −log10 of the molar value. Active and inactive are the calls of the source. No cut-off for these calls is given here.
What was measured:
D(2) dopamine receptor [1] = target: T1, D(2) dopamine receptor (Homo sapiens, UniProt P14416); experiment: Antagonist activity at human D2S receptor transfected in HEK293T cells assessed as forskolin-induced cAMP accumulation by BRET assay; assay type: functional, cell-based; conditions: HEK-293T
D(2) dopamine receptor [2] = target: T1, D(2) dopamine receptor; experiment: Displacement of [3H]spiperone from human dopamine D2L receptor expressed in CHO cells; assay type: cell-based
D(3) dopamine receptor = D(3) dopamine receptor (Homo sapiens, UniProt P35462); experiment: Displacement of [3H]spiperone from human dopamine D3 receptor expressed in CHO cells; assay type: cell-based
D(4) dopamine receptor = target: T2, D(4) dopamine receptor (Homo sapiens, UniProt P21917); experiment: Displacement of [3H]spiperone from human dopamine D4 receptor expressed in CHO cells; assay type: cell-based
T2 sequence (P21917 whole entry): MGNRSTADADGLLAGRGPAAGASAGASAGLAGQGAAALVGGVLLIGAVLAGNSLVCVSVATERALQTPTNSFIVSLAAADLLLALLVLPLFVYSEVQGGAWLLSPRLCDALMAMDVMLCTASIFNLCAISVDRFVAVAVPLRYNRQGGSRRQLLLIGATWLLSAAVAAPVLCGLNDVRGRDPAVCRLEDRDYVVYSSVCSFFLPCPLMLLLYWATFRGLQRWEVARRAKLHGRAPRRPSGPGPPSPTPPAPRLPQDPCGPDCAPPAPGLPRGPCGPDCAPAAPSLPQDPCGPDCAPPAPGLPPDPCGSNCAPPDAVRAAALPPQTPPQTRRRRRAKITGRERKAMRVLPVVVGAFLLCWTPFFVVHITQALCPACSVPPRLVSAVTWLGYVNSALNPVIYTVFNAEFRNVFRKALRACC

D(1B) dopamine receptor = D(1B) dopamine receptor (Homo sapiens, UniProt P21918); experiment: Displacement of [3H]SCH23390 from human dopamine D5 receptor expressed in HEK cells; assay type: cell-based, HEK293
D(2) dopamine receptor [3] = target: T1, D(2) dopamine receptor; experiment: Displacement of [3H]spiperone from human dopamine D2S receptor expressed in CHO cells; assay type: cell-based
D(1A) dopamine receptor = D(1A) dopamine receptor (Homo sapiens, UniProt P21728); experiment: Displacement of [3H]SCH23390 from human dopamine D1 receptor expressed in HEK cells; assay type: cell-based, HEK293
Chain of D(1A) dopamine receptor (P21728 whole entry): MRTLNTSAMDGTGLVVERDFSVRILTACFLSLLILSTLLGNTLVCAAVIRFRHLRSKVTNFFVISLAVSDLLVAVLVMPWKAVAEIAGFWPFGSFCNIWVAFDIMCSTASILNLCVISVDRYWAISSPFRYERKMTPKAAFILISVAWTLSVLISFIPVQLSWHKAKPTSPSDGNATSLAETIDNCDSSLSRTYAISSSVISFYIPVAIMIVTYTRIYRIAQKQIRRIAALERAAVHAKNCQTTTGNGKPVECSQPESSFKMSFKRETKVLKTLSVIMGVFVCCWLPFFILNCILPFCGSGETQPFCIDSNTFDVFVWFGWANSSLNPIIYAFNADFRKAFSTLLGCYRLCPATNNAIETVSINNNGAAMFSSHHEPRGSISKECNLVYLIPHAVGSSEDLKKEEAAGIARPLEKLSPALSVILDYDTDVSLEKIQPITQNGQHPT

Chain of D(3) dopamine receptor (P35462 whole entry): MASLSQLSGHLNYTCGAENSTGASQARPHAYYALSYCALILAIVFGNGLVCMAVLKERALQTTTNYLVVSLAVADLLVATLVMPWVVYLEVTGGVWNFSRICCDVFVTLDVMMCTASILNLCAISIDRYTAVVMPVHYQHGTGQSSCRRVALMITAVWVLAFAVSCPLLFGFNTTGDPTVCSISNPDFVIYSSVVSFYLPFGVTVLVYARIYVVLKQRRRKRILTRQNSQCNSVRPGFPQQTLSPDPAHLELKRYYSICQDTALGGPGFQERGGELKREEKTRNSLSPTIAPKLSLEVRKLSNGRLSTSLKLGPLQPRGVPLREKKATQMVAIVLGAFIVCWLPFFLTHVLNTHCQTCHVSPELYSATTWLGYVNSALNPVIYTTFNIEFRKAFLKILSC
T1 sequence (P14416 whole entry): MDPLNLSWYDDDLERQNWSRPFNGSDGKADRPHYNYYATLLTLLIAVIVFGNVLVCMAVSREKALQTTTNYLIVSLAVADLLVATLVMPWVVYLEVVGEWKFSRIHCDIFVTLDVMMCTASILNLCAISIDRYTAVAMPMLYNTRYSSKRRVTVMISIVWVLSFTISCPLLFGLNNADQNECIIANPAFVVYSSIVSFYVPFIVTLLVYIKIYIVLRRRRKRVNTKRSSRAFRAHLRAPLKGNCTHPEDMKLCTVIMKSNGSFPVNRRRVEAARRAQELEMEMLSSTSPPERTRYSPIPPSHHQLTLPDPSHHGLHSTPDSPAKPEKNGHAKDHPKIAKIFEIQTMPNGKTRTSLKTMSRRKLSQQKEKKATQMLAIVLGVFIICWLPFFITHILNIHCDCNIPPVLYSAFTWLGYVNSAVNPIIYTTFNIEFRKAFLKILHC
Chain of D(1B) dopamine receptor (P21918 whole entry): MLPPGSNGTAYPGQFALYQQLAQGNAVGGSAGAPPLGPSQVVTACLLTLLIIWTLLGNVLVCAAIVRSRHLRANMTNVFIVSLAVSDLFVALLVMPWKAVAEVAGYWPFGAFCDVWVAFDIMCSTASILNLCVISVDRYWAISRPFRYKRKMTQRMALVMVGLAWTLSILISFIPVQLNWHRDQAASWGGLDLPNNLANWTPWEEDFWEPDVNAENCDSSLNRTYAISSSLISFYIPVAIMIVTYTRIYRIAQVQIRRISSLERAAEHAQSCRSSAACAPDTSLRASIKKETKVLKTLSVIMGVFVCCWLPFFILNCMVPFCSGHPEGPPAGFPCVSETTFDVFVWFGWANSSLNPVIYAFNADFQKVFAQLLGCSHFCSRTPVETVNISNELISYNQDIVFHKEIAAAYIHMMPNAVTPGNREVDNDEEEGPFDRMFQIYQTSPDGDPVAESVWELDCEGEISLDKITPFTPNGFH

Row | Structure (SMILES) | Activity (D(2) dopamine receptor [1]) | pKi (D(2) dopamine receptor [2]) | pKi (D(3) dopamine receptor) | pKi (D(4) dopamine receptor) | pKi (D(1B) dopamine receptor) | pKi (D(2) dopamine receptor [3]) | pKi (D(1A) dopamine receptor)
1 | CCCN(CCN1CCN(CCc2c[nH]c3ccccc23)CC1)c1ccc(Br)cc1 | Active | 7.24 | 7.05 | 9.14 | 5.89 | 7.29 | 6.60
2 | Brc1ccc(NCCN2CCN(CCc3c[nH]c4ccccc34)CC2)cc1 | Active | 7.28 | 6.70 | 7.70 | 5.44 | 7.32 | 6.32
3 | Brc1ccc(CNCCN2CCN(Cc3cc4ccccc4[nH]3)CC2)cc1 |  | 5.28 | 5.74 |  |  |  | 
4 | CCCN(CCN1CCN(CCc2c[nH]c3ccccc23)CC1)c1ccc(OC)cc1 |  | 6.92 | 6.55 |  |  |  | 
5 | CCCN(CCN1CCN(Cc2cc3ccccc3[nH]2)CC1)c1ccc(Br)cc1 |  | 6.66 | 6.22 |  |  |  | 
6 | CCCN(CCN1CCN(Cc2cc3ccccc3[nH]2)CC1)c1ccc(OC)cc1 |  | 6.28 | 5.89 |  |  |  | 
7 | CCCN(CCN1CCN(Cc2cc3ccccc3[nH]2)CC1)Cc1ccc(OC)cc1 |  | 5.39 | 5.34 |  |  |  | 
8 | COc1ccc(CNCCN2CCN(Cc3cc4ccccc4[nH]3)CC2)cc1 |  | 5.40 | 5.37 |  |  |  | 
9 | Brc1ccc(NCCN2CCN(Cc3cc4ccccc4[nH]3)CC2)cc1 |  | 6.04 | 5.64 |  |  |  | 
10 | CCCN(CCN1CCN(Cc2cc3ccccc3[nH]2)CC1)Cc1ccc(Br)cc1 |  | 6.04 | 6.03 |  |  |  | 
11 | COc1ccc(NCCN2CCN(CCc3c[nH]c4ccccc34)CC2)cc1 |  | 6.37 | 6.21 |  |  |  | 
12 | COc1ccc(NCCN2CCN(Cc3cc4ccccc4[nH]3)CC2)cc1 |  | 5.12 | 4.74 |  |  |  | 

— ChEMBL document CHEMBL3621057, “Multicomponent Synthesis and Biological Evaluation of a Piperazine-Based Dopamine Receptor Ligand Library” (ACS Med Chem Lett, 2015)
